Reference: PMC6344423, “Opposing Actions of Adrenocorticotropic Hormone and Glucocorticoids on UCP1-Mediated Respiration in Brown Adipocytes” (Frontiers in Physiology, 2019)

What was measured:
primary brown adipocytes = experiment: Microplate-based respirometry (XF96), UCP1-mediated uncoupled respiration; type: cell-based, mouse
Protocol: (§1) Oxygen consumption of primary brown adipocytes was measured at 37°C using microplate-based respirometry (XF96 extracellular flux analyzer, Seahorse Bioscience) as described previously ([Li et al., 2014b]) following the subsequent protocol at day 7 of differentiation. Prior to the respiration measurement, primary cells were washed with warmed, unbuffered assay medium (DMEM basal medium supplemented with 25 mM glucose, 31 mM NaCl, 2 mM GlutaMax and 15 mg/l phenol red, pH 7.4) (basal assay medium). Subsequent to the medium replacement with basal assay medium containing 1–2% essentially fatty acid free bovine serum albumin (BSA), cells were incubated at 37°C in a CO2-free incubator for 1 h. Assay reagents were loaded into the drug injections ports of the sensor cartridges at 10X in basal assay medium (no BSA). After assessment of basal oxygen consumption in untreated cells oligomycin (5 μM) was injected to inhibit coupled respiration and to determine basal leak respiration. Next, effector was added to investigate UCP1-dependant uncoupled respiration. By the addition of FCCP (1 μM) maximal respiratory capacity was determined. Lastly, non-mitochondrial oxygen consumption was assessed by blocking mitochondrial respiration with antimycin A (5 μM). For some experiments, cells were pretreated for 1 h with 50 μM H89 (PKA inhibitor), 1–100 μM propranolol (β-adrenergic receptor antagonist), 40 μM Atglistatin (ATGL inhibitor) and 40 μM Hi76-0079 (HSL inhibitor) 1 h prior to the measurement. Oxygen consumption rates were automatically calculated by the Seahorse XF-96 software. Each experiment was repeated at least three times with similar results and five to eight replicate wells for every condition in each independent experiment. Results are predominately expressed as stimulated respiration which is calculated as fold increase of basal leak.
In our first screen, we tested whether these GsPCR ligands can activate oxygen consumption acutely in brown adipocytes. UCP1-mediated uncoupled respiration was quantified in cultured adherent intact primary brown adipocytes, according to a protocol established in our lab ([Li et al., 2014b]). After recording basal respiration and the fraction of coupled and uncoupled respiration, UCP1-dependent respiration was measured. Finally, maximal respiratory capacity and non-mitochondrial oxygen consumption were assessed by adding the uncoupling agent carbonyl cyanide 4-(trifluoromethoxy) phenylhydrazone (FCCP) and antimycin A was added to block the electron transport chain, respectively. All respiration assays were performed in the presence of BSA to buffer free fatty acid (FFA) levels in the respiration medium.

[1] = system: Ucp1 gene expression in primary brown adipocytes of Ucp1^ki/ki mice; experiment: Luciferase assay, FLUC activity as surrogate for Ucp1 expression; type: cell-based, mouse; conditions: overnight stimulation, normalized to total protein content, n = 3, Figure 1D
Protocol: After overnight stimulation of primary brown adipocytes of Ucp1^ki/ki mice luciferase activity was assayed using a commercial kit system (Luciferase Assay System Freezer Pack E4030, Promega GmbH). Primary cells were lysed in 1x reporter lysis buffer by shaking for 20 min at room temperature. 10 μl lysate was mixed with 50 μl luciferase assay substrate solution, and the mixture was measured by FB12 in a luminometer (Single Tube Luminometer, Titertek-Berthold GmbH). Bioluminescence readouts were normalized to total protein content.
We then measured FLUC activity in primary brown adipocytes from Ucp1^ki/ki reporter gene mice to determine the effect of the GsPCR ligands on Ucp1 gene expression in response to overnight stimulation. As the expression of Fluc in these cells is driven by Ucp1promoter, FLUC activity served as a surrogate for Ucp1 expression.

[2] = system: cytosolic cAMP in primary brown adipocytes; experiment: Quantification of cellular cAMP (cAMP-Glo Assay); type: cell-based, mouse
Protocol: Changes in cytosolic cAMP concentrations were determined in primary brown adipocytes in response to ACTH- or isoproterenol stimulation using cAMP-Glo Assay (Promega) following the manufacturer’s instructions.

[3] = system: Ucp1 mRNA in primary brown adipocytes; experiment: Ucp1 gene expression analysis (qRT-PCR), brown adipocytes; type: cell-based, mouse
Protocol: (§2) Total RNA was isolated using Trisure (Bioline) and purified with SV total RNA Isolation System (Promega). Reverse transcriptase reactions were performed using SensiFAST cDNA Synthesis Kit (Bioline). Quantitative real-time PCR (qRT-PCR) was performed with SYBR green fluorescent dye in 384-well format using LightCycler 480 (Roche). General Transcription Factor IIB (Gtf2b) served as an internal control. To be able to calculate relative gene expression levels of samples, standard reactions containing serial diluted pooled cDNA of all samples (Pure, 1:2, 1:4, 1:8, 1:16, 1:32 and 1:64) as a template were used to establish a standard curve. The RNA abundance of Ucp1 gene was normalized to the housekeeping gene Gtf2b. The following primers were used: […]

[4] = system: Ucp1 mRNA in primary white adipocytes; experiment: Ucp1 gene expression analysis (qRT-PCR), white adipocytes; type: cell-based, mouse; conditions: two different doses of ACTH, iWAT adipocytes, normalized to Gtf2b, n = 4, Figure 3B
Protocol: as §2

[5] = system: primary brown adipocytes of UCP1^-/-; experiment: Respirometry in primary brown adipocytes of UCP1^-/- mice; type: cell-based, mouse; conditions: ACTH 1 μM, n = 3, Figure 2G
Protocol: as §1, with “Next, effector was added to investigate UCP1-dependant uncoupled respiration.” left out, “For some experiments, cells were pretreated for 1 h with 50 μM H89 (PKA inhibitor), 1–100 μM propranolol (β-adrenergic receptor antagonist), 40 μM Atglistatin (ATGL inhibitor) and 40 μM Hi76-0079 (HSL inhibitor) 1 h prior to the measurement.” left out, “Each experiment was repeated at least three times with similar results and five to eight replicate wells for every condition in each independent experiment.” left out

BAT = conditions: supraphysiological dose, 15 μM ACTH; ref van den Beukel et al., 2014; cited from earlier work
Source text: (§3) The melanocortins ACTH and α-MSH are known for their lipolytic action in rodent adipocytes, as first reported in 1958 ([Lafontan, 2012]; [Braun et al., 2018]). […] ACTH enhanced BAT function in obese rats ([York and Al-Baker, 1984]), and increased glucose transport and respiration in isolated brown adipocytes ([Marette and Bukowiecki, 1990]) via fatty acid activation of mitochondrial uncoupled respirati ...

T37i cells = conditions: ref Iwen et al., 2008, van den Beukel et al., 2014; cited from earlier work
Source text: as §3

[6] = system: immortalized murine adipocytes; conditions: ref Iwen et al., 2008, van den Beukel et al., 2014; cited from earlier work
Source text: as §3

[7] = dose–response experiment, Figure 2A

FLUC (luciferase) activity as surrogate for Ucp1 expression [1]: moderate rise in FLUC activity
EC50 ([2]; stimulation for 30 min, n = 3, non-linear regression, Figure 2D): 1490 nM
Substance: ACTH: Murine ACTH(1-39), 39 amino acid peptide hormone, ligand for the melanocortin 2 receptor (MC2R) (SYSMEHFRWGKPVGKKRRPVKVYPNVAENESAEAFPLEF; Corticotropin; UniProt P01193 124-162, looked up)
ACTH concentration that stimulated respiration (fold increase over basal leak respiration) (primary brown adipocytes; [7]): 200 nM
ACTH concentration with the most robust effect on stimulated respiration (primary brown adipocytes; [7]): 1 µM
Stimulated respiration (UCP1-dependent uncoupled respiration) as fold increase of basal leak respiration, GsPCR ligand screen (primary brown adipocytes; primary brown adipocytes (129S6 mice), acute addition after oligomycin 5 μM, medium with 1–2% fatty acid free BSA, 37°C, n = 5, Figures 1B,C): most prominent induction of UCP1-dependant uncoupled respiration
Cytosolic cAMP levels after ACTH stimulation ([2]; increasing concentrations, 30 min, n = 3, Figure 2D): dose-dependent increase of cytosolic cAMP levels
Maximal induction of Ucp1 mRNA relative to ISO ([3]; 1 μM ACTH vs ISO 500 nM, Figures 3A,B): comparable to the effect of ISO treatment
Ucp1 mRNA levels, differentiated brown adipocytes ([3]; two different doses of ACTH, normalized to Gtf2b, n = 4, Figure 3A): dose-dependent increase in Ucp1 mRNA levels
Ucp1 mRNA levels, differentiated white adipocytes [4]: dose-dependent increase in Ucp1 mRNA levels
ACTH-stimulated respiration in UCP1^-/- compared to UCP1^+/+ cells [5]: attenuated in primary brown adipocytes of UCP1^-/-
Glucose uptake into BAT (BAT): increased glucose uptake into BAT
ACTH concentration at which adipocytes respond in cell culture (T37i cells): 50 nM
ACTH concentration at which adipocytes respond in cell culture [6]: 100 nM
